Data set [1] is described as follows: MTT cytotoxicity in HFF-1. The class given is cell-based, human. Particulars: human, HFF-1 cells, HFF-1, 48 h, read-out: % Cytotoxicity w.r.t. untreated cells. The procedure: (§1) 1. HaCaT, HFF-1 and Ea.hy926 cells were counted and plated in 96 well plates at the density corresponding to 5 X 10^3 cells/well/180 μl of cell growth medium.
(§2) 2. The above cells were then incubated overnight under growth conditions of 37°C, 95 % Humidity, 5 % CO2.so as to allow the cell recovery and exponential growth.
(§3) 3. Following overnight incubation, the above cells were serum starved in DMEM (containing 25 mM glucose) supplemented with […] for 24 h.
(§4) 5. The Ea.hy926 cells were then incubated for 24 h and HaCaT and HFF-1 cells were incubated for 48 h in CO2 incubator at 37 °C, 5 % CO2 and 95 % humidity.
(§5) 6. Following incubation, the plates were taken out and 20 μl of 5 mg/ml of MTT 3-(4,5-dimethythiazol-2-yl)-2,5-diphenyl tetrazolium bromide solution was added to all the wells followed by additional incubation for 3 h at 37 °C. The supernatant was aspirated and 150 μl of DMSO was added to each well to dissolve formazan crystals. The absorbance of each well was then read at 540 nm using Synergy HT micro plate reader.
(§6) 7. The percentage cytotoxicity at each tested concentration was calculated using the following formula:
(§7) % Cytotoxicity = (1-X/R)*100

The subject of data set [2] is HFF-1 cells. Description: MTT cytotoxicity in HFF-1. The class given is cell-based, human. Particulars: HFF-1, all tested concentrations (0.01 to 1000 μM); <30% = non-cytotoxic. On the procedure: as §1, §2, §3, §4, §5, §6, §7
For data set [3], the system named is HFF-1 (human dermal fibroblasts). Description: Scratch assay, fibroblast migration under high glucose. The class given is cell-based. The procedure:
(§8) High blood glucose levels hamper the migration of human fibroblasts, endothelial cells, and keratinocytes that impair wound healing ([16]–[20]). […] The detailed protocol and cytotoxicity results are provided in the Supplementary File. An actively growing culture of HFF-1 (human dermal fibroblasts), Ea.hy926 (human endothelial cells), and HaCaT (human keratinocytes) cell lines in Dulbecco’s modified Eagle’s medium containing 25 mM glucose supplemented with 10% fetal bovine serum was prepared. The cells were counted through a hemocytometer and were seeded at a density of 0.08 × 10^6 (HFF-1), 0.1 × 10^6 (Ea.hy926), and 0.2 × 10^6 (HaCaT Cells) cells/well/ml of culture medium. The plates were incubated overnight followed by serum starvation for 24 h. Scratch wounds were made in a confluent monolayer by making a straight scratch in the center of the well using a sterile 200-µl pipette microtip. […] The kinetics of migration of the cells in the wound was recorded by phase-contrast microscopy. The experiment was carried out in duplicate cells for each concentration.

For data set [4], the system named is Ea.hy926 (human endothelial cells). The data set is described as follows: Scratch assay, endothelial cell migration under high glucose. The class given is cell-based. The procedure: as §8
Data set [5] has as its system HaCaT (human keratinocytes). Description: Scratch assay, keratinocyte migration under high glucose. The class given is cell-based. On the procedure:
as §8

Where [6] appears, read: 1 and 10 µM, compared with control, high glucose.
The mark [7] stands for this setting: 100 and 500 µM compared with 1 and 10 µM.

SMILES strings stand for the structures. Counter-ions that a name gives are not always drawn.

In the case of `COC(=O)CCc1ccc(OCC(O)CNC(C)C)cc1` (stereo not drawn) [Esmolol hydrochloride], the cytotoxicity at 48 h, 0.01 µM in data set [1] (0.01 μM) is -21.6%. Further, the cytotoxicity at 48 h, 0.1 µM in data set [1] (0.1 μM) is -10.7%. Also, the cytotoxicity at 48 h, 1 µM in data set [1] (1 μM) was -8.29%. The cytotoxicity at 48 h, 10 µM in data set [1] (10 μM) was -17.1%. Further, in data set [1] (50 μM), the cytotoxicity at 48 h, 50 µM was -21.8%. Further, the cytotoxicity at 48 h, 100 µM in data set [1] (100 μM) was -21.9%. In addition, the cytotoxicity at 48 h, 500 µM in data set [1] (500 μM) worked out at 14%. Moreover, the cytotoxicity at 48 h, 1000 µM in data set [1] (1000 μM) came to 16.6%. In data set [2], the “cytotoxicity” value was “non-cytotoxic”. In addition, the migration of fibroblasts result was “enhanced the migration” in data set [3] (setting [6]) and “lower migration” in data set [3] (setting [7]). Moreover, the figures for the “migration of endothelial cells” value in data set [4] (setting [6]) and in data set [4] (setting [7]) were “enhanced the migration” and “lower migration”, respectively. In addition, the migration of keratinocytes result in data set [5] (setting [6]) is listed as “enhanced the migration”; in data set [5] (setting [7]), “lower migration”.

The record behind these values is article PMC9446078 (Frontiers in Endocrinology, 2022).
